{
  "source": "ChEMBL document CHEMBL1201862",
  "about": "“PubChem BioAssay data set” (2004)",
  "key": {"[1]": {"assay": "HCT116 cell viability decrease, GSK3B pretreatment – CellTiter-Glo, IC50, dose response (AID 1117339)", "assay_type": "functional", "details": "HCT-116"}, "[2]": {"assay": "RKO cell viability reduction, dose response, CellTiter-Glo luminescence (AID 1117322)", "assay_type": "functional"}, "[3]": {"assay": "Concentration-dependent survival of SW480 colon cancer line, luminescence detection with CellTiter-Glo, half-maximal inhibitory concentration (AID 1117338)", "assay_type": "functional"}, "[4]": {"assay": "cytotoxicity toward Colo320 cells – cell-based, CellTiter-Glo luminescence, IC50, dose response (AID 1117334)", "assay_type": "functional", "details": "COLO 320"}, "[5]": {"assay": "HeLa 4N DNA content increase, dose response, cell-based, IC50 (AID 1117351)", "assay_type": "functional"}, "[6]": {"assay": "CellTiter-Glo luminescent dose response of DLD-1 viability loss (AID 1117352)", "assay_type": "functional"}, "[7]": {"assay": "Late-stage results from the probe development effort to identify antagonists of arginine vasopressin receptor 1a (AVPR1a): fluorescence-based cell-based dose response AVPR1a inhibition assay.", "assay_type": "functional"}, "Vasopressin V1b receptor": {"biological_target": "Vasopressin V1b receptor (Homo sapiens, UniProt P47901)", "sequence (P47901 whole entry)": "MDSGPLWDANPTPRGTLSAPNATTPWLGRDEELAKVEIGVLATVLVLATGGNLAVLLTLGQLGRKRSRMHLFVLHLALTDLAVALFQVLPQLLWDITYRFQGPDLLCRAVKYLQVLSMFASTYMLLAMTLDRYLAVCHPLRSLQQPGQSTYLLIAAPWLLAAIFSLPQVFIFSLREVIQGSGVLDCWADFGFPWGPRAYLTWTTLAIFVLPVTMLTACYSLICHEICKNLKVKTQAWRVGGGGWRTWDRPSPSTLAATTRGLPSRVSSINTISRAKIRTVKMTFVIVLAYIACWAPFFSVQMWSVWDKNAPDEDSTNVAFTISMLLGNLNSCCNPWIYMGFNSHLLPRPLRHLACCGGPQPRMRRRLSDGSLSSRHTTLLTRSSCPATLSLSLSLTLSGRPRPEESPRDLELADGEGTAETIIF", "assay": "Late-stage results from the probe development effort to identify antagonists of arginine vasopressin receptor 1a (AVPR1a): fluorescence-based cell-based dose response AVPR1b inhibition counterscreen assay.", "assay_type": "functional"}, "Vasopressin V2 receptor": {"biological_target": "Vasopressin V2 receptor (Homo sapiens, UniProt P30518)", "sequence (P30518 whole entry)": "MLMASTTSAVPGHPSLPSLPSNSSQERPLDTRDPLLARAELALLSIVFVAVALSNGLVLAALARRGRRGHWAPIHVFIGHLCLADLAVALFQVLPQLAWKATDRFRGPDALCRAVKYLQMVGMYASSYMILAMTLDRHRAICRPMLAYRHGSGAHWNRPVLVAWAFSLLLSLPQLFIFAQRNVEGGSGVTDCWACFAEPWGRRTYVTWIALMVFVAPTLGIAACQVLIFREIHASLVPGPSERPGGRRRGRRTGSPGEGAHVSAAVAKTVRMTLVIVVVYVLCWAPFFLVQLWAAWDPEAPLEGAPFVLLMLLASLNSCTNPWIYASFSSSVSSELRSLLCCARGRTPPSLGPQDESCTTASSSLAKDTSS", "assay": "Late-stage results from the probe development effort to identify antagonists of arginine vasopressin receptor 1a (AVPR1a): fluorescence-based cell-based dose response AVPR2 inhibition counterscreen assay.", "assay_type": "functional"}, "[8]": {"assay": "Late-stage results from the probe development effort to identify antagonists of arginine vasopressin receptor 1a (AVPR1a): fluorescence-based cell-based dose response OXTR inhibition counterscreen assay.", "assay_type": "functional"}, "[9]": {"assay": "SNU-C1 cell viability reduction, dose response, CellTiter-Glo luminescence (AID 1117323)", "assay_type": "functional, cell-based"}, "[10]": {"assay": "cytotoxicity toward HT-29 cells – cell-based, CellTiter-Glo luminescence, IC50, dose response (AID 1117330)", "assay_type": "functional"}, "[11]": {"assay": "cytotoxicity toward HCT116 cells – cell-based, CellTiter-Glo luminescence, IC50, dose response (AID 1117332)", "assay_type": "functional", "details": "HCT-116"}, "[12]": {"assay": "A549 cell cytotoxicity, dose response, cytotoxicity control, 24 h, CellTiter-Glo luminescence, cherry-picks (AID 1053115)", "assay_type": "functional, cell-based", "details": "A549, 24 h"}, "[13]": {"assay": "inhibitors of intracellular T. cruzi replication, confirmation, NIH3T3 host cells, beta-gal luminescence (AID 2044);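 note: luminescent beta-galactosidase reporter signal from transgenic T. cruzi replicating inside host cells; inhibitors lower the luminescence signal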", "assay_type": "functional, cell-based"}, "Beta-galactosidase": {"biological_target": "Beta-galactosidase (Escherichia coli, UniProt Q8VNN2)", "sequence (Q8VNN2 whole entry)": "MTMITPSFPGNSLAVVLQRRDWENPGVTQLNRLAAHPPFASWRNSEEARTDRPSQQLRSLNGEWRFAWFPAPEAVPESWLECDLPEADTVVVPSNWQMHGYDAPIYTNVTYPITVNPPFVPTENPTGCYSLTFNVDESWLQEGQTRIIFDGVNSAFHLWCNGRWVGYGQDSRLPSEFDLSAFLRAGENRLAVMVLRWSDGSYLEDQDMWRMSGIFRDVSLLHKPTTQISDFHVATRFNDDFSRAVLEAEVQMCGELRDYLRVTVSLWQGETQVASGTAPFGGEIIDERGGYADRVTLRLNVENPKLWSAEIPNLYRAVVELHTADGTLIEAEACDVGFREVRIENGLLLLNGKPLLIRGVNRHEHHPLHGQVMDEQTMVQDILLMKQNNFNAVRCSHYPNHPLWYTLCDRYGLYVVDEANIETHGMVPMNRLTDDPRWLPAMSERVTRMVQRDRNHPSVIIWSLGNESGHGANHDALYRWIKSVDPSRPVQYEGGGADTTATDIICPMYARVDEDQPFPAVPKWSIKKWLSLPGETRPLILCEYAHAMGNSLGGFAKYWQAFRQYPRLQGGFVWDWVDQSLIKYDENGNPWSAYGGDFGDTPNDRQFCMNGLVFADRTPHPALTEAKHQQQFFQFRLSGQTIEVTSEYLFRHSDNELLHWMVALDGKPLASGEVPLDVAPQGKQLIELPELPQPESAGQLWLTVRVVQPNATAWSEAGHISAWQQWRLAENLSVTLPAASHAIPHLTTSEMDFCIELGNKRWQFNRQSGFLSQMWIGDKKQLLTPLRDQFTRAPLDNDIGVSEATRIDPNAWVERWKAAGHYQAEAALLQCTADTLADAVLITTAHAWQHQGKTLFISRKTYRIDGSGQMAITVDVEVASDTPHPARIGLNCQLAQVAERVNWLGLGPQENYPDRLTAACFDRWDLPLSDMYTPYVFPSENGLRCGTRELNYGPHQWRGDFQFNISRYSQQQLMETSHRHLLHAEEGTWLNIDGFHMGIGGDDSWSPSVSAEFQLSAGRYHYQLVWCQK", "assay": "Dose response counterscreen for EBI2 assay utilizing the enzyme, b-galactosidase.", "assay_type": "functional"}, "[14]": {"assay": "Vero cell cytotoxicity, dose response, cytotoxicity control for Vif-APOBEC3G degradation inhibitor project, Vero cells (AID 1117358)", "assay_type": "functional", "details": "Human immunodeficiency virus 1, Vero"}, "[15]": {"assay": "cytotoxicity toward NIH3T3 fibroblasts, dose response, counter-screen, cell-based, ATP luminescence, mouse fibroblasts (AID 2010);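 note: cells exposed to compound for about 90 hours before reading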", "assay_type": "functional"}, "[16]": {"assay": "inhibitors of Vif binding to APOBEC3G peptide, primary screen, biochemical, TR-FRET, GST-Vif 1-94, biotin-A3G peptide, dose response retest (AID 1117319);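 note: TR-FRET signal of purified GST-Vif binding a biotinylated A3G peptide; inhibitors lower the FRET signal by blocking Vif and A3G binding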", "assay_type": "functional"}, "[17]": {"assay": "cytotoxicity in MIN6 insulinoma cells, dose response, cytotoxicity control, cell-based, mouse insulinoma (AID 2122);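 note: confirmatory high-throughput counterscreen run to flag cytotoxic compounds; mouse MIN-6 beta cells carrying an insulin promoter eGFP reporter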", "assay_type": "functional"}, "[18]": {"assay": "THP-1 cell cytotoxicity, dose response, cytotoxicity control for Vif-APOBEC3G degradation inhibitor project, THP-1 cells (AID 1117359)", "assay_type": "functional", "details": "Human immunodeficiency virus 1, THP-1"}, "[19]": {"assay": "insulin promoter down-regulators in MIN6 cells, imaging, high-content screening, mouse beta cells (AID 1628)", "assay_type": "functional"}, "[20]": {"biological_target": "Dual specificity tyrosine-phosphorylation-regulated kinase 1A (Rattus norvegicus, UniProt Q63470)", "assay_type": "biochemical, Homo sapiens"}, "[21]": {"biological_target": "T1, Oxysterols receptor LXR-beta (Homo sapiens, UniProt P55055)", "T1 sequence (P55055 whole entry)": "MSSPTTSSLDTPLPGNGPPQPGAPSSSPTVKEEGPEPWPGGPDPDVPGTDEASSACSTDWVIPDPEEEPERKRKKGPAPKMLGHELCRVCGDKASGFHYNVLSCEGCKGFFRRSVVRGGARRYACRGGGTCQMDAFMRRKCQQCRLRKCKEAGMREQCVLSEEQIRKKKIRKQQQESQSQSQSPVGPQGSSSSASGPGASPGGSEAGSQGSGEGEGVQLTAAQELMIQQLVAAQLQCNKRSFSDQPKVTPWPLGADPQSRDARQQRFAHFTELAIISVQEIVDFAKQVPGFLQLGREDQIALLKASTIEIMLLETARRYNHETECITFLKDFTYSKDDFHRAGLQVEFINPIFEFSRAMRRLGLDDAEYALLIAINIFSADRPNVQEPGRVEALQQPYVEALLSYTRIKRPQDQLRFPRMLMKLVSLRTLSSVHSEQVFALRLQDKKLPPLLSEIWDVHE", "assay_type": "functional, cell-based"}, "[22]": {"biological_target": "T2, Rac GTPase-activating protein 1 (Homo sapiens, UniProt Q9H0H5)", "T2 sequence (Q9H0H5 whole entry)": "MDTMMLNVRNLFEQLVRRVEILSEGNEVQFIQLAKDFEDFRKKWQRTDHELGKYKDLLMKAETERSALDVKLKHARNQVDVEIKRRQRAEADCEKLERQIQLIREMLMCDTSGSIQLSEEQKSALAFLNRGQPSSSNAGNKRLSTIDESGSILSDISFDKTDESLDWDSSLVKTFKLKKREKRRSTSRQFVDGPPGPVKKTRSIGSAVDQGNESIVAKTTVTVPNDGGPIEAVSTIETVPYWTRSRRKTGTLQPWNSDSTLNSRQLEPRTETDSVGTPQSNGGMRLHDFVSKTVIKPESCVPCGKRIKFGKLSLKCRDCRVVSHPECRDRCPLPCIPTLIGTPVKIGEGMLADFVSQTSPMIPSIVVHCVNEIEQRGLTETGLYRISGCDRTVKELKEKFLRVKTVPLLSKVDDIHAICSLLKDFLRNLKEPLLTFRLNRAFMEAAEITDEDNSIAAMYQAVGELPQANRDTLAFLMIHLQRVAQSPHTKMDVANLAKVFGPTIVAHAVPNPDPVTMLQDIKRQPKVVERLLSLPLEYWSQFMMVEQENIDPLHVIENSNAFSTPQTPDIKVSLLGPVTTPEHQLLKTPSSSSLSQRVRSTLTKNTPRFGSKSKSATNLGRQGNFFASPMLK", "assay": "MgcRacGAP GTPase-activating activity inhibitors, confirmation, biochemical, ADP Hunter fluorescence, primary and confirmatory (AID 624330)", "assay_type": "functional"}, "[23]": {"biological_target": "G-protein coupled receptor 183 (Homo sapiens, UniProt P32249)", "sequence (P32249 whole entry)": "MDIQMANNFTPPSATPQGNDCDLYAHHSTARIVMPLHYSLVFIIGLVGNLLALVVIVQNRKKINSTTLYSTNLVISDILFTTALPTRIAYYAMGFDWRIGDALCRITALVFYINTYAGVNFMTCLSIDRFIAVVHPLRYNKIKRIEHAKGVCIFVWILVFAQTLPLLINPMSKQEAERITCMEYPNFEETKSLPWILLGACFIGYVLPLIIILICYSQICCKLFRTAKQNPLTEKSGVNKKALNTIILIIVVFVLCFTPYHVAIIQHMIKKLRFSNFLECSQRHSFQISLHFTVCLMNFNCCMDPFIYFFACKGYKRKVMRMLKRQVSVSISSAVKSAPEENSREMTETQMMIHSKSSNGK", "assay": "SAR confirmation of small molecule antagonists of the EBI2 receptor via a luminescent beta-arrestin assa.", "assay_type": "functional"}},
  "note": "Active and inactive are the calls of the source.",
  "data": [
    {"smiles": "COc1cccc2c1C(=O)c1c(O)c3c(c(O)c1C2=O)C[C@@](O)(C(=O)CO)CC3OC1CC(N2CCOC(OC)C2)C(O)C(C)O1", "note": "(some centres not stated)", "values": [
      {"measurement": "IC50", "setting": "[1]", "result": "0.001 µM (active)"},
      {"measurement": "IC50", "setting": "[2]", "result": "0.001 µM (active)"},
      {"measurement": "IC50", "setting": "[3]", "result": "0.001 µM (active)"},
      {"measurement": "IC50", "setting": "[4]", "result": "0.001 µM (active)"},
      {"measurement": "IC50", "setting": "[5]", "result": "> 10 µM (inactive)"},
      {"measurement": "IC50", "setting": "[6]", "result": "0.001 µM (active)"}
    ]},
    {"smiles": "O=C(C1CCN(c2ncccc2F)CC1)N(CC1CC1)c1ccc(Cl)cc1", "values": [
      {"measurement": "IC50", "setting": "[7]", "result": "0.015 µM (active)"},
      {"measurement": "IC50", "setting": "Vasopressin V1b receptor", "result": "11.5 µM (inactive)"},
      {"measurement": "IC50", "setting": "Vasopressin V2 receptor", "result": "19 µM (inactive)"},
      {"measurement": "IC50", "setting": "[8]", "result": "3.6 µM (active)"}
    ]},
    {"smiles": "CC(CC=O)CCCC(C)(C)O", "note": "(configuration not stated)", "values": [
      {"measurement": "IC50", "setting": "[1]", "result": "> 20 µM (inactive)"},
      {"measurement": "IC50", "setting": "[9]", "result": "> 20 µM (inactive)"},
      {"measurement": "IC50", "setting": "[10]", "result": "> 20 µM (inactive)"},
      {"measurement": "IC50", "setting": "[11]", "result": "> 20 µM (inactive)"},
      {"measurement": "IC50", "setting": "[2]", "result": "> 20 µM (inactive)"},
      {"measurement": "IC50", "setting": "[3]", "result": "> 20 µM (inactive)"},
      {"measurement": "IC50", "setting": "[4]", "result": "> 20 µM (inactive)"},
      {"measurement": "IC50", "setting": "[6]", "result": "> 20 µM (inactive)"}
    ]},
    {"smiles": "OC[C@@H]1Nc2ccc(-c3cccc(F)c3)cc2[C@H]2[C@@H]1CCN2Cc1ccc(F)cc1", "values": [
      {"measurement": "AC50", "setting": "[12]", "result": "51.5 µM (active)"}
    ]},
    {"smiles": "Cc1cccc(S(=O)(=O)c2c(N)n(/N=C/c3ccco3)c3nc4ccccc4nc23)c1", "values": [
      {"measurement": "EC50", "setting": "[13]", "result": "2.12 µM (active)"},
      {"measurement": "IC50", "setting": "Beta-galactosidase", "result": "> 80 µM (inactive)"},
      {"measurement": "CC50", "setting": "[14]", "result": "> 40 µM (active)"},
      {"measurement": "EC50", "setting": "[15]", "result": "12 µM (active)"},
      {"measurement": "IC50", "setting": "[16]", "result": "> 55.3 µM (active)"},
      {"measurement": "IC50", "setting": "[17]", "result": "9.21 µM (active)"},
      {"measurement": "CC50", "setting": "[18]", "result": "> 40 µM (active)"},
      {"measurement": "IC50", "setting": "[19]", "result": "6.02 µM (active)"}
    ]},
    {"smiles": "CSc1nc(/C=C2\\C=Nc3ccccc32)c(O)[nH]1", "values": [
      {"measurement": "AC50", "setting": "[20]", "result": "7.28 µM (active)"},
      {"measurement": "EC50", "setting": "cells", "result": "> 67.6 µM (inactive)"},
      {"measurement": "EC50", "setting": "[21]", "result": "> 67.6 µM (inactive)"},
      {"measurement": "IC50", "setting": "[22]", "result": "35.9 µM (active)"}
    ]},
    {"smiles": "CCOc1ccc(/C=C/C(=O)N2CCN(S(=O)(=O)c3ccc(Br)cc3)CC2)cc1", "values": [
      {"measurement": "IC50", "setting": "[23]", "result": "0.0143 µM (active)"}
    ]}
  ]
}
